The numbers were not newly measured in PMC4357254, “Molecular cloning and characterization of the allatotropin precursor and receptor in the desert locust, Schistocerca gregaria” (Frontiers in Neuroscience, 2015), which cites them from elsewhere.

Where no end group is shown, it is not given here.

The test system of data set [1] is ATR of M. sexta. The conditions noted are these: ref Horodyski et al., [2011]. From the text: (§1) ATs exert effects on their cellular targets by binding to receptors with high affinity binding sites that are members of the family of rhodopsin-like G protein-coupled receptors (GPCRs). The AT receptors (ATRs) are orthologous to vertebrate orexin/hypocretin receptors. To date, five ATRs have been characterized; namely the neuropeptide 16 receptor in Bombyx mori (Yamanaka et al., [2008]), the receptors of M. sexta (Horodyski et al., [2011]), Tribolium castaneum (Vuerinckx et al., [2011]), Aedes aegypti (Nouzova et al., [2012]) and Bombus terrestris (Verlinden et al., [2013]). The first three w ...

Data set [2] has as its system ATR receptor of B. terrestris. As to conditions: ref Verlinden et al., [2013].
From the text: as §1

Data set [3] concerns T. castaneum receptor. The conditions noted are these: ref Vuerinckx et al., [2011].
From the text: as §1

Data set [4] concerns neuropeptide 16 receptor in Bombyx mori. As to conditions: ref Yamanaka et al., [2008].
From the text: as §1

Data set [5] has as its system corpora allata (CA). The conditions noted are these: in vitro; ref Kataoka et al., [1989]. From the text:
Allatotropin (AT) was originally identified as an amidated tridecapeptide isolated from the nervous system of the lepidopteran Manduca sexta. […] Most ATs have a conserved C-terminal pentapeptide that consists of a TARGFa motif although the hymenopteran AT has an exceptional TAYGFa C-terminal (Veenstra et al., [2012]). There are also AT-like peptides (ATLs) that contain more variation in their C-terminal motif but t ...

Consider “Manse-AT: amidated tridecapeptide isolated from the nervous system of the lepidopteran Manduca sexta (GFKNVEMMTARGF-NH2; UniProt P21786 37-49, looked up)”, for which the “activation of M. sexta ATR” value in data set [1] is reported as “dose-dependently activated”. The “activation of B. terrestris ATR” value in data set [2] was “responded”. In addition, the “concentrations needed for activation of B. terrestris ATR” value in data set [2] (relative to other ATRs) is listed as “much higher concentrations were needed”. The “activation of T. castaneum ATR” value in data set [3] is listed as “dose-dependently activated”. The “activation of B. mori neuropeptide 16 receptor” value in data set [4] is on record as “dose-dependently activated”. Besides, the “JH biosynthesis in the corpora allata” value in data set [5] is “stimulate juvenile hormone (JH) biosynthesis”.
